Measurements taken from patent publication US8637470B2, “Small humanin-like peptides” (The Regents of the University of California, priority 2008, dated 2014).
Entries after “also recorded” stand apart in the source; their conditions may differ.

Legend:
ERK = ERK activation in 22RV1 cells (immunoblotting, ELISA); format: cell-based, human; settings: 22RV1, 100 nM; for ERK activation profile (immunoblotting): 15 min to 24 h
Procedure: Characterization of the intracellular signaling pathways activated by SHLPs. To determine a mechanism for the growth and apoptosis effects of SHLPs, SHLPs were tested for the ability to modulate activation of intracellular signaling pathways. 22RV1 cells in SF media were treated with 100 nM SHLP 1-5 and whole cell extracts were harvested after 15 min, 30 min, 2 h, 4 h, 8 h and 24 h. Proteins were separated by SDS-PAGE and analyzed by immunoblotting.
To test the hypothesis that SHLPs may act in concert to regulate intracellular signaling, 22RV1 cells were co-treated with SHLPs 2 and 3, and ERK activation was assessed.
Since HN causes activation of STAT3, SHLPs 2 and 3 were also tested for effects on STAT3. […] To more accurately quantify the ERK phosphorylation caused by SHLPs 2 and 3, we repeated the experiment as described above but used a commercially available ERK ELISA to assess ERK phosphorylation. Optimal ERK activation by SHLP2 was 9-fold after 24 h, whilst optimal activation by SHLP3 was 12-fold after 2 h (FIG. 5).

[1] = test system: murine 3T3-L1 fibroblasts; assay: 3T3-L1 adipocyte differentiation (oil red-O staining); format: cell-based; settings: 100 nM peptide with 10 nM insulin, 7 days
Procedure: SHLPs 2 and 3 Stimulate Adipocyte Differentiation of 3T3-L1 Cells in vitro. […] We next assessed the ability of SHLP2, 3 and 6 to modulate the differentiation of 3T3-L1 adipocytes. Differentiation was induced in murine 3T3-L1 fibroblasts by incubation in 1 μM dexamethasone, 100 nM insulin, and 500 μM lisobutylmethyxanthine for 2 days, followed by incubation with 10 nM insulin in the presence of 100 nM scrambled peptide (control), SHLP2, SHLP3 or SHLP6 for 7 days. Differentiation was assessed by oil red-0 staining as a measure of oil droplet formation.

HAEC'S = assay: Intracellular ROS production (DHE fluorescence) in HAEC; format: cell-based; settings: 0.1 nM peptide over night, oxidized LDL 100 μg protein/ml 30 min
Procedure: SHLPs suppress intracellular production of Reactive Oxygen Species (ROS). ROS production was monitored by following the conversion of the oxidant-sensitive dye dihydroethidine to the fluorescent ethidium (DHE) for measuring the cellular ability to produce Reactive Oxygen Species. HAEC'S plated on glass cover slips were incubated over night with 0.1 nM SHLP2 or SHLP6 versus regular cultured medium. For ROS measurement, cells were incubated for 30 min with 10 μM DHE in HBSS containing calcium magnesium and glucose at 37° c. Then cells were treated with Oxidized LDL 100 μg protein/ml for 30 minutes at 37° c. Samples were imaged under fluorescence microscope with a Texas Red filter corresponding to the fluorescence of DHE. Average fluorescence intensity was used to evaluate the changes of intracellular ROS generation, results are expressed in relative fluorescence unit (RFU) representing average intensity per cell area.

STAT3 = STAT3 phosphorylation in NIT-1 cells (immunoblotting); format: cell-based, mouse; settings: NIT-1, 100 nM
Procedure: In addition to 22RV1, the effects of SHLPs on ERK and STAT3 phosphorylation were also studied in NIT-1 pancreatic β-cells. […] Indeed, the activation profile caused by SHLP3 in NIT-1 is remarkably similar to that stimulated by SHLP2 in 22RV1. When ERK activation was quantified by ELISA, a 6-fold and 9-fold activation was observed after 2 and 24 h, respectively, by SHLP2.

biotinylated-HN = biotinylated-HN (Homo sapiens, UniProt Q8IVG9); assay: Dot-blot binding to biotinylated-HN; settings: 2, 5 or 10 nmol peptide dotted on nitrocellulose
biotinylated-HN, sequence (Q8IVG9 whole entry): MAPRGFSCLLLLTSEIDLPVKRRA
Procedure: To test a dimerization hypothesis, we performed a dot-blot using biotinylated-HN. Two, 5 or 10 nmol IGF-I (negative control), HN (positive control) or SHLP peptide were dotted on to nitrocellulose membrane, and their ability to bind to biotinylated-HN was assessed immunologically. […] Specific interactions that occur may be determined using, e.g., dot blots with biotinylated SHLPs, and/or antibodies against specific SHLPs.

[2] = test system: 22RV1 human prostate cancer cells; assay: Apoptosis ELISA (fragmentation of histone-associated DNA) in 22RV1 cells; format: cell-based; settings: for Protective effect of SHLP on apoptosis after stattic pre-treatment: 22RV1, 20 μM stattic (STAT3 inhibitor), 100 nM peptide; for Effect of SHLP on apoptosis after PD98059 pre-treatment: 22RV1, 25 μM PD98059 (ERK1/2 inhibitor); for Apoptosis (fragmentation of histone-associated DNA): 22RV1, serum starved 24 h, then 24 h with 100 μM peptide
Procedure: SHLPs are anti-apoptotic in 22RV1 prostate cancer cells and NIT-1 β-cells. […] Mouse NIT-1 insulinoma β-cells and 22RV1 human prostate cancer cells were serum starved for 24 h, followed by 24 h incubation with 100 nM scrambled control peptide, HN or SHLPs. Apoptosis was assessed and quantified by ELISA for fragmentation of histone-associated DNA.
ERK activation is necessary for SHLP-induced inhibition of apoptosis in NIT-1 and 22RV1 cells. To determine the significance of ERK activation for apoptosis inhibition by SHLPs 2 and 3, PD98059 (PD), a specific chemical inhibitor of ERK1/2, was utilized. 22RV1 and NIT-1 cells were serum starved for 24 h in the presence or absence of 25 μM PD or 1 μM wortmannin (PI3-kinase inhibitor; negative control), followed by 24 h incubation with […] scrambled control peptide, SHLP2 or SHLP3. Apoptosis was then assessed by ELISA for fragmentation of histone-associated DNA.
STAT3 Activation is also necessary for SHLP-induced cell survival in 22RV1 cells. Since SHLPs 2 and 3 both stimulate STAT3 phosphorylation in addition to ERK activation, the hypothesis that STAT3 activation occurs downstream of ERK1/2 was tested using a specific chemical inhibitor against STAT3, stattic. 22RV1 cells were incubated for 24 h in SF media in the presence or absence of 20 μM stattic followed by 24 h incubation with 100 nM scrambled control peptide, SHLP2 or SHLP3. Apoptosis was assessed by ELISA for fragmentation of histone-associated DNA. […]

Sequence | ERK activation profile (immunoblotting) (ERK) | Optimal ERK activation (ELISA) (ERK; after 24 h) [fold] | Adipocyte differentiation (oil red-O staining) [1] | Intracellular ROS production (DHE fluorescence) (HAEC'S) | STAT3 activation/phosphorylation (immunoblotting) (STAT3) | Binding to biotinylated-HN (dot-blot) (biotinylated-HN) | SHLP-induced cell survival after wortmannin pre-treatment ([2]; 22RV1, 1 μM wortmannin (PI3-kinase inhibitor)) | Protective effect of SHLP on apoptosis after stattic pre-treatment [2] | Effect of SHLP on apoptosis after PD98059 pre-treatment [2] | Apoptosis (fragmentation of histone-associated DNA) [2] | Time to ERK activation (ERK) [min] | Optimal ERK activation (ELISA) (ERK; after 2 h) [fold]
MGVKFFTLSTRFFPSVQRAVPLWTNS [SHLP2, small humanin-like peptide, mtDNA 2092-2170] | delayed but sustained activation after 8 h | 9 | strikingly induced adipocyte differentiation; also recorded: stimulate 3T3-L1 adipocyte differentiation | suppresses ROS production; also recorded: suppresses production of reactive oxygen species | temporally similar to the timing of ERK activation | weak interaction; also recorded: binds | inhibited SHLP2-induced cell survival | abrogated the protective effects | abrogated | significantly inhibited |  | 
MLGYNFSSFPCGTISIAPGFNFYRLYFIWVNGLAKVVW [SHLP3, small humanin-like peptide, mtDNA 1707-1821] | activated ERK rapidly |  | strikingly induced adipocyte differentiation; also recorded: stimulate 3T3-L1 adipocyte differentiation |  | only slightly stimulate |  |  | abrogated the protective effects | abrogated | significantly inhibited | ≤ 2 | 12
